Source: patent publication US20070264355A1, “BINARY COMPOSITIONS AND METHODS FOR STERILIZATION” (Binary, LLC, priority 2005, published 2007)
Values joined by “and” are separate entries in the source; they are usually repeats but may differ in a detail not shown here. Equal entries are not always repeated.

Assays:
[1] = system: Escherichia coli (ATCC 25922); test: Microbicidal activity against Escherichia coli (suspension test, surviving CFU); format: cell-based; conditions: inoculum 1630000 CFU
From the text: Each solution was used alone for the individual controls. Organism suspensions were used to achieve a final target concentration of 2-3×10^6 CFU per ml. For the binary system treatments, sodium hypochlorite solution and hydrogen peroxide solution, non-acidified or acidified, were sequentially added to the microorganisms. Acidified hydrogen peroxide solution was obtained by the addition of 1.0% v/v of 0.001 N hydrochloride solution. After each addition, the resulting mixture was allowed to remain in contact with the organisms for a set amount of time at room temperature (about 22° C.), as listed in the Tables 1 and 2. At the end of the treatment time, the mixtures were neutralized with 200 to 500 microliters of thiosulfate solution (2.4%) to quench the activity of sodium hypochlorite and then treated with 100 to 200 microliters of a 1% catalase solution, containing a minimum of 100 units/ul, to quench the hydrogen peroxide activity. If needed, an appropriate volume of sterile saline was added to bring the final volume of reaction mixture to 1.4 ml after neutralization. Serial dilution plate counts were performed from the contents of each vial in sterile saline and inoculated onto TSA for quantitative culture. Plates were then incubated at 37° C. and counts taken at 24 hours. […]

[2] = system: Bacillus subtilis (ATCC 19659) spores; test: Microbicidal activity against Bacillus subtilis spores (suspension test, surviving CFU); format: cell-based
From the text: Each solution was used alone for the individual controls. Organism suspensions were used to achieve a final target concentration of 2-3×10^6 CFU per ml. For the binary system treatments, sodium hypochlorite solution and hydrogen peroxide solution, non-acidified or acidified, were sequentially added to the microorganisms. Acidified hydrogen peroxide solution was obtained by the addition of 1.0% v/v of 0.001 N hydrochloride solution. After each addition, the resulting mixture was allowed to remain in contact with the organisms for a set amount of time at room temperature (about 22° C.), as listed in the Tables 1 and 2. At the end of the treatment time, the mixtures were neutralized with 200 to 500 microliters of thiosulfate solution (2.4%) to quench the activity of sodium hypochlorite and then treated with 100 to 200 microliters of a 1% catalase solution, containing a minimum of 100 units/ul, to quench the hydrogen peroxide activity. If needed, an appropriate volume of sterile saline was added to bring the final volume of reaction mixture to 1.4 ml after neutralization. Serial dilution plate counts were performed from the contents of each vial in sterile saline and inoculated onto TSA for quantitative culture. Plates were then incubated at 37° C. and counts taken at 24 hours.
Suspensions of Bacillus subtilis (ATCC 19659) containing 100% spores, as confirmed by microscopy, were obtained by washing the spun-down cells with 50% ethanol to eliminate the vegetative form. Starting inoculum of approximately 1-3×10^6 CFU was used as in Example 1.
[…] The binary system was neutralized 30 minutes after addition of hydrogen peroxide using 2.4% thiosulfate and 1% catalase as described in Example 1.

[3] = NaOCl 0.07 mM 60 min, inoculum 1120000 CFU
[4] = NaOCl 0.07 mM 60 min, inoculum 1865000 CFU
[5] = NaOCl 0.07 mM 120 min, inoculum 1865000 CFU
[6] = NaOCl 0.7 mM 60 min, inoculum 1500000 CFU
[7] = NaOCl 0.71 mM 60 min, inoculum 1120000 CFU
[8] = NaOCl 0.71 mM 60 min, inoculum 1865000 CFU
[9] = NaOCl 0.71 mM 120 min, inoculum 1865000 CFU
[10] = NaOCl 3.5 mM 60 min, inoculum 1500000 CFU
[11] = NaOCl 7.0 mM 60 min, inoculum 1500000 CFU
[12] = NaOCl 7.05 mM 60 min, inoculum 1120000 CFU
[13] = NaOCl 7.05 mM 60 min, inoculum 1865000 CFU
[14] = NaOCl 7.05 mM 120 min, inoculum 1865000 CFU
[15] = NaOCl 70.53 mM 60 min, inoculum 1865000 CFU
[16] = NaOCl 70.53 mM 120 min, inoculum 1865000 CFU
[17] = NaOCl 705.27 mM 60 min, inoculum 1865000 CFU
[18] = NaOCl 705.27 mM 120 min, inoculum 1865000 CFU

Question: Which results are given for [Na+].[O-]Cl [NaOCl, sodium hypochlorite]?
Answer: Log 10 (CFU + 1) Survivors ([1]; NaOCl 0.01 mM 15 min): 6.1; Total Viability (CFU) ([1]; NaOCl 0.01 mM 15 min): 1218000 CFU; Log 10 (CFU + 1) Survivors ([1]; NaOCl 0.02 mM 15 min): 5.9; Total Viability (CFU) ([1]; NaOCl 0.02 mM 15 min): 784000 CFU; Log 10 (CFU + 1) Survivors ([1]; NaOCl 0.03 mM 15 min): 3.0; Total Viability (CFU) ([1]; NaOCl 0.03 mM 15 min): 994 CFU; Log 10 (CFU + 1) Survivors [2, 3]: 6.2; Total Viability (CFU) [2, 3]: 1666000 CFU; Log 10 (CFU + 1) Survivors [2, 4]: 6.3; Log Reduction [2, 4]: −0.1; Total Viability (CFU) [2, 4]: 2142000 CFU; Log 10 (CFU + 1) Survivors [2, 5]: 6.3; Log Reduction [2, 5]: 0.0; Total Viability (CFU) [2, 5]: 1834000 CFU; Log 10 (CFU + 1) Survivors [2, 6]: 3.5; Log Reduction [2, 6]: 2.7 and 2.66; Total Viability (CFU) [2, 6]: 3304 CFU; Log 10 (CFU + 1) Survivors [2, 7]: 3.5; Total Viability (CFU) [2, 7]: 2898 CFU; Log 10 (CFU + 1) Survivors [2, 8]: 4.2; Log Reduction [2, 8]: 2.1; Total Viability (CFU) [2, 8]: 14840 CFU; Log 10 (CFU + 1) Survivors [2, 9]: 3.2; Log Reduction [2, 9]: 3.1; Total Viability (CFU) [2, 9]: 1526 CFU; Log 10 (CFU + 1) Survivors [2, 10]: 2.7; Log Reduction [2, 10]: 3.4 and 3.44; Total Viability (CFU) [2, 10]: 546 CFU; Log 10 (CFU + 1) Survivors [2, 11]: 1.3; Log Reduction [2, 11]: 4.9 and 4.87; Total Viability (CFU) [2, 11]: 20 CFU; Log 10 (CFU + 1) Survivors [2, 12]: 1.3; Total Viability (CFU) [2, 12]: 17 CFU; Log 10 (CFU + 1) Survivors [2, 13]: 1.6; Log Reduction [2, 13]: 4.6; Total Viability (CFU) [2, 13]: 43 CFU; Log 10 (CFU + 1) Survivors [2, 14]: 0.0; Log Reduction [2, 14]: 6.3; Total Viability (CFU) [2, 14]: 0 CFU; Log 10 (CFU + 1) Survivors [2, 15]: 0.0; Log Reduction [2, 15]: 6.3; Total Viability (CFU) [2, 15]: 0 CFU; Log 10 (CFU + 1) Survivors [2, 16]: 0.0; Log Reduction [2, 16]: 6.3; Total Viability (CFU) [2, 16]: 0 CFU; Log 10 (CFU + 1) Survivors [2, 17]: 0.0; Log Reduction [2, 17]: 6.3; Total Viability (CFU) [2, 17]: 0 CFU; Log 10 (CFU + 1) Survivors [2, 18]: 0.0; Log Reduction [2, 18]: 6.3; Total Viability (CFU) [2, 18]: 0 CFU; microbicidal activity (kill of inoculum) ([2]; sodium hypochlorite from 70 mM to 0.07 mM, 60 minutes of exposure, 6.3 log10 CFU inoculum): partial kill
